Test results published in patent publication US5316773A, “Particulate preparation containing a flourracil derivative and hydroxypropylmethyl-cellulose” (Otsuka Pharmaceutical Co., Ltd., priority 1990, dated 1994).

Assays:
[1] = Absorption test using beagle (oral administration, EM-FU concentration in plasma); type: in vivo; conditions: preparations corresponding to 100 mg BOF-A2 per beagle, all cases
[2] = after administration in vivo; via conversion into EM-FU and CNDP; cited from earlier work

For `CCOCn1cc(F)c(=O)n(C(=O)c2cccc(C(=O)Oc3nc(OC(=O)c4ccccc4)ccc3C#N)c2)c1=O` [BOF-A2, 3-[3-(6-Benzoyloxy-3-cyano-2-pyridyloxycarbonyl)benzoyl]-1-ethoxymethyl-5-fluorouracil], the “non-changed compound (BOF-A2) in plasma” value [1] is listed as “not detected” and the anti-cancer activity [2] is listed as “continuous and strong anti-cancer activity”.
